Measured values taken from US20100035866A1, “NOVEL SUBSTITUTED-1, 1-DIOXO-BENZO[1,2,4]THIADIAZIN-3ONES, PREPARATION METHOD THEREOF, AND PHARMACEUTICAL COMPOSITION CONTAINING THE SAME” (KOREA RESEARCH INSTITUTE OF CHEMICAL TECHNOLOGY, priority 2006, published 2010).

Columns and labels:
hD3 receptor = molecular target: T1, hD3 receptor (Homo sapiens, UniProt P35462); assay: Dopamine receptor family binding: D3 ([3H]spiperone); conditions: [3H]spiperone 1 nM; read-out: Binding affinity, IC50 (nM), D3
T1 construct: purchased BioSignal Packard Inc., Montreal, Canada
T1 sequence (P35462 whole entry): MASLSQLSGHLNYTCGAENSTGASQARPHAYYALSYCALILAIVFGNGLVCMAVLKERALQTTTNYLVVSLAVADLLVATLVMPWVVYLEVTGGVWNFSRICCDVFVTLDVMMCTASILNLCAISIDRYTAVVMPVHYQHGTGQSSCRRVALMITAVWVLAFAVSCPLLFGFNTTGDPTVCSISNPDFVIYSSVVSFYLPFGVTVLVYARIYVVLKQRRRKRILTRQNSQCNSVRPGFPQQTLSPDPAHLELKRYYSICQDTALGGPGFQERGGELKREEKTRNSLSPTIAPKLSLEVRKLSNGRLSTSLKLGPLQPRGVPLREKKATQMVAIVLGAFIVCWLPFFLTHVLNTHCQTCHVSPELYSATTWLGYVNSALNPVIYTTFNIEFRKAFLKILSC

D1 = D1 (Homo sapiens, UniProt P21728); assay: Dopamine receptor family binding: D1; conditions: read-out: Binding affinity, IC50 (nM), D1
D1, sequence (P21728 whole entry): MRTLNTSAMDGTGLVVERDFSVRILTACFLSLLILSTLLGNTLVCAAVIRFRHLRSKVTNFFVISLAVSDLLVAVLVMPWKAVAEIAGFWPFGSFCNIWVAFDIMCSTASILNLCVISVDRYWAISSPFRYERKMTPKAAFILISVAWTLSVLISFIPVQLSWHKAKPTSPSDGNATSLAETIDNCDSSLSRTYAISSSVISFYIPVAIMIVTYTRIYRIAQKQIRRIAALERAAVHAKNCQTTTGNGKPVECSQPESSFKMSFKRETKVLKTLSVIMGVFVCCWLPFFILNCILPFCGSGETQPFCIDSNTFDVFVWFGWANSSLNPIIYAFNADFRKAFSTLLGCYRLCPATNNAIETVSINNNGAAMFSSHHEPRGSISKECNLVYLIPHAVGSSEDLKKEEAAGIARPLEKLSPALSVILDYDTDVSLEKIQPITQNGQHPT

[1] = tested on: HeLa cells transfected with the human 5-HT6 receptor; assay: Cytotoxicity in HeLa cells of the cAMP assay; format: cell-based; conditions: at the concentrations tested (0.001-10 μM)
hD2L receptor = molecular target: T2, hD2L receptor (Homo sapiens, UniProt P14416); assay: Dopamine receptor family binding: D2 ([3H]spiperone); conditions: [3H]spiperone 1 nM; read-out: Binding affinity, IC50 (nM), D2
T2 construct: purchased BioSignal Packard Inc., Montreal, Canada
T2 sequence (P14416 whole entry): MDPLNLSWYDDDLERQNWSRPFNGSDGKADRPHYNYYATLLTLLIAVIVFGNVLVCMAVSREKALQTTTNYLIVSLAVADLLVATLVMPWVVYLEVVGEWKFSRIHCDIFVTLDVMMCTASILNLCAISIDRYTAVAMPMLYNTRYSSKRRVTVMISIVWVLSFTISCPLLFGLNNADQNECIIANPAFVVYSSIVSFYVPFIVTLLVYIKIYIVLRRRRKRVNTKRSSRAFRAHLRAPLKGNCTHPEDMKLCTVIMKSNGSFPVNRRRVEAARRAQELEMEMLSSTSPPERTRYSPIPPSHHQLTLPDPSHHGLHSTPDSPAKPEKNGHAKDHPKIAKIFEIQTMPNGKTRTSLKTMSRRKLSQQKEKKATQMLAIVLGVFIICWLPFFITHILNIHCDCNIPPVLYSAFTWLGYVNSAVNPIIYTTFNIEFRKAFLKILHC
In short: (§1)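 Competition binding on human receptor membranes: D2L with [3H]spiperone 1 nM in 50 mM Tris-HCl pH 7.4, 10 mM MgCl2, 1 mM EDTA; D4.2 with [3H]YM-09151-2 0.06 nM in Tris-HCl pH 7.4 with MgCl2, EDTA, KCl, CaCl2. 7-8 concentrations in duplicate, three assays; IC50 by nonlinear regression.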

mice = assay: Rotarod deficit; conditions: mouse, in vivo
Experimental: The mouse was placed on a 1 inch diameter knurled plastic rod rotating at 6 rpm (Ugo-Basile, Milano, Italy), and the rotarod deficit (%) was obtained by counting the number of animals fallen from the rotating rod within 1 min (Dunham et al., 1957) at 30, 60, 90 and 120 min after the injection of test compound.

rats = assay: Apomorphine-induced disruption of prepulse inhibition (PPI) of acoustic startle
hD4.2 receptor = molecular target: T3, hD4.2 receptor (Homo sapiens, UniProt P21917, DEL265-296); assay: Dopamine receptor family binding: D4 ([3H]YM-09151-2); conditions: [3H]YM-09151-2 0.06 nM; read-out: Binding affinity, IC50 (nM), D4
T3 construct: purchased BioSignal Packard Inc., Montreal, Canada
T3 sequence (P21917 with tags, fused parts or gaps DEL265-296): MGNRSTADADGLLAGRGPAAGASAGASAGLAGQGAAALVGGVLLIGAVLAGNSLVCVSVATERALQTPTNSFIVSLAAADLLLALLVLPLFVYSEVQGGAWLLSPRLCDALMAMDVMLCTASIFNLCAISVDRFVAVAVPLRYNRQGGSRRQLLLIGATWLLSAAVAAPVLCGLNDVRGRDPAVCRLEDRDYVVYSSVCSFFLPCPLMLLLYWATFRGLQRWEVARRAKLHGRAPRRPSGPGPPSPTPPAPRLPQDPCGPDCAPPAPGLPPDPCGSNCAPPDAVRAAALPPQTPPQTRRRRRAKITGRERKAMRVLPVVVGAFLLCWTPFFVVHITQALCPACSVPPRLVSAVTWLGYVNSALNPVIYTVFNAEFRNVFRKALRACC
In short: as §1

5-HT2c = molecular target: T4, 5-HT2c (Homo sapiens, UniProt P28335); assay: Radioligand binding, 5-HT receptor family: 5-HT2c ([3H]Mesulergine); conditions: CHO-K1 human recombinant receptor, [3H]Mesulergine 1 nM; read-out: Binding affinity, IC50 (nM), 5-HT2c
T4 construct: purchased Euroscreen/BioSignal Packard Inc
T4 sequence (P28335 33-458): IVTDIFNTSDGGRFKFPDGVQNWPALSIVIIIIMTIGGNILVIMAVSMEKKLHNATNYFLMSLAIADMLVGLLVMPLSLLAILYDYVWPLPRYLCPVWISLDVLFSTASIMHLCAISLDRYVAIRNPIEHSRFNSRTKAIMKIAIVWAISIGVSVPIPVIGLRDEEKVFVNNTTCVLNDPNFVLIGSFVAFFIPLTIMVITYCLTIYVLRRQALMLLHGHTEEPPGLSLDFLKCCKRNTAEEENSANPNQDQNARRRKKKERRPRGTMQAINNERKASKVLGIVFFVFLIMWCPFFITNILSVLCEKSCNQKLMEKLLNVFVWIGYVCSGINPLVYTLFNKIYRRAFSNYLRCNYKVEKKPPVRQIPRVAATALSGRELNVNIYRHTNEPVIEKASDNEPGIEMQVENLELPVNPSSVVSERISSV

5-HT7 = molecular target: T5, 5-HT7 (Homo sapiens, UniProt P34969); assay: Radioligand binding, 5-HT receptor family: 5-HT7 ([3H]LSD); conditions: CHO-K1 human recombinant receptor, [3H]LSD 3 nM; read-out: Binding affinity, IC50 (nM), 5-HT7
T5 construct: purchased Euroscreen/BioSignal Packard Inc
T5 sequence (P34969 whole entry): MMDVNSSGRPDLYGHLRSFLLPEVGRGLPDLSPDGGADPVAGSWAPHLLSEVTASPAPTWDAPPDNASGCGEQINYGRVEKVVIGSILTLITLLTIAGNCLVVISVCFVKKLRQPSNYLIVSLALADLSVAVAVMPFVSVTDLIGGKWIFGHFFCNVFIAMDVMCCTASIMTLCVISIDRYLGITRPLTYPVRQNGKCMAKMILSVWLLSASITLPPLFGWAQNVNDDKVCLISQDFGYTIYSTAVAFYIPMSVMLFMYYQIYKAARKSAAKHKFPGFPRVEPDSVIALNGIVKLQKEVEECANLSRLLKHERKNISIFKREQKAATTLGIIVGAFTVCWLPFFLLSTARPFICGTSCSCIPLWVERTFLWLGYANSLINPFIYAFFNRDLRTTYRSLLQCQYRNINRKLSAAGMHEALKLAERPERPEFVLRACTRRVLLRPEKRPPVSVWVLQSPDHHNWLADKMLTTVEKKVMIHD
In short: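 Supplier-recommended protocol used throughout, with purchased membrane preparations carrying each receptor as the binding source.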

5-HT6 receptors = 5-HT6 receptors (Homo sapiens, UniProt P50406); assay: Adenylyl cyclase activity (cAMP accumulation) in HeLa cells transfected with human 5-HT6 receptor
5-HT6 receptors, sequence (P50406 whole entry): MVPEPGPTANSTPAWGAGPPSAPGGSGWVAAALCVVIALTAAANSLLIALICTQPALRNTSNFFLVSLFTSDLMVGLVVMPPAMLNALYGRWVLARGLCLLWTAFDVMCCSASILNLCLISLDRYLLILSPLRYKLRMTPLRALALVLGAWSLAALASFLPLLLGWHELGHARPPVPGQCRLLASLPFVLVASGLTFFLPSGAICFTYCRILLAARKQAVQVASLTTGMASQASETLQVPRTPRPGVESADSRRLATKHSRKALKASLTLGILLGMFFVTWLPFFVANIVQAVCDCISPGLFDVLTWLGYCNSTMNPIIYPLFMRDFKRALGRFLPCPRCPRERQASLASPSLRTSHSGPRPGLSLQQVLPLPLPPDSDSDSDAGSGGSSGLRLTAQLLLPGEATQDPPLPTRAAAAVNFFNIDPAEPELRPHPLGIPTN

5-HT2a = molecular target: T6, 5-HT2a (Homo sapiens, UniProt P28223); assay: Radioligand binding, 5-HT receptor family: 5-HT2a ([3H]Ketanserin); conditions: CHO-K1 human recombinant receptor, [3H]Ketanserin 1 nM; read-out: Binding affinity, IC50 (nM), 5-HT2a
T6 construct: purchased Euroscreen/BioSignal Packard Inc
T6 sequence (P28223 whole entry): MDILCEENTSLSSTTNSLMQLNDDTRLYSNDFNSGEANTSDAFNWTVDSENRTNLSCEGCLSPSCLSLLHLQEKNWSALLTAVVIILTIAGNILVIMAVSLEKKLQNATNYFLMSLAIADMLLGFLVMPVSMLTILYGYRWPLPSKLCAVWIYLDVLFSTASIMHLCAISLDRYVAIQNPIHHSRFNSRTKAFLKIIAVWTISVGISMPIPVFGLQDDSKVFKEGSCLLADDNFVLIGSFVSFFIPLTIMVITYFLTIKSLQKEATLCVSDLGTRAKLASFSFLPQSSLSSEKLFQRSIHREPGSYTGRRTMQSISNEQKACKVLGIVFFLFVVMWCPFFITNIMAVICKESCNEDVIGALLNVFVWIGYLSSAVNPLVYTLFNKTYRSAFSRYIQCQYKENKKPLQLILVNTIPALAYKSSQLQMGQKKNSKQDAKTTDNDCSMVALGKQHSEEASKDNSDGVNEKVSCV

5-HT1a = molecular target: T7, 5-HT1a (Homo sapiens, UniProt P08908); assay: Radioligand binding, 5-HT receptor family: 5-HT1a ([3H]8-OH-DPAT); conditions: CHO-K1 human recombinant receptor, [3H]8-OH-DPAT 0.5 nM; read-out: Binding affinity, IC50 (nM), 5-HT1a
T7 construct: purchased Euroscreen/BioSignal Packard Inc
T7 sequence (P08908 1-422): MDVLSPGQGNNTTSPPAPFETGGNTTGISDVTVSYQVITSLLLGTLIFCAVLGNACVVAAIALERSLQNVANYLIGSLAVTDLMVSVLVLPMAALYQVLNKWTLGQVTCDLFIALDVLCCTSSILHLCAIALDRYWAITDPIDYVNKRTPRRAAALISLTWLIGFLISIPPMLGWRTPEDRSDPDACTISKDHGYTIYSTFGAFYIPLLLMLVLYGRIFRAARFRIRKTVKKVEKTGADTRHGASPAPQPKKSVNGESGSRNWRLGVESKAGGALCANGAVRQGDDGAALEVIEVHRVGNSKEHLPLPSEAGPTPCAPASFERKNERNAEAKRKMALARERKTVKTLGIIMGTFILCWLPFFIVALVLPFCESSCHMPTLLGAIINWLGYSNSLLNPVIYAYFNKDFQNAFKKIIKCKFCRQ

[2] = molecular target: Human serotonin 5-HT6 receptor (Homo sapiens, UniProt P50406); assay: [3H]LSD binding assay on cloned 5-HT6 receptor; conditions: IC50 (nM)
Human serotonin 5-HT6 receptor, sequence (P50406 whole entry): as the sequence (P50406 whole entry) above

[3] = HeLa, read-out: inhibition of 0.3 μM serotonin (5-HT)-induced increase in cAMP levels

With `O=C1N(Cc2ccccc2)c2cc(Cl)cc(N3CCNCC3)c2S(=O)(=O)N1Cc1ccccc1` [Example 44, 2,4-Dibenzyl-6-chloro-1,1-dioxo-8-piperazin-1-yl-1,4-dihydro-2H-1λ^6-benzo[1,2,4]thiadiazin-3-one] the IC50 (hD3 receptor) was 1210 nM, the IC50 (D1) was 6390 nM and the cytotoxicity [1] was “did not show any cytotoxicity”. For the same compound, the IC50 (hD2L receptor) was 667 nM, the “TD50 relative to effective doses obtained in the PPI test” value (mice) was “about 8 times” and the “rotarod ataxia / rotarod deficit (in words)” value (mice) was “moderate rotarod deficit”. The “effect on PPI of compound alone vs vehicle control” value (rats; rats, 2.5, 5, 10 & 20 mg/kg, i.p., without apomorphine) was “no significant effect”, the “mean startle amplitude vs apomorphine control group” value (rats; rats, administered 30 min before apomorphine) was “no significant differences” and the “reversal of disruption of PPI by apomorphine” value (rats; rats, pretreatment i.p. 30 min before apomorphine 2 mg/kg, i.p.) was “reversed significantly”. The IC50 (hD4.2 receptor) was > 10000 nM, the IC50 (5-HT2c) was 1880 nM and the IC50 (5-HT7) was > 10000 nM. The IC50 (5-HT6 receptors) was 67.8 nM, the “5-HT-induced increase in cAMP level inhibited (in words)” value (5-HT6 receptors; FIG. 1) was “inhibited” and the inhibition at 0.001 µM (5-HT6 receptors; [3]) was 0%. The inhibition at 0.01 µM (5-HT6 receptors; [3]) was 8%, the inhibition at 0.1 µM (5-HT6 receptors; [3]) was 63% and the inhibition at 1 µM (5-HT6 receptors; [3]) was 100%. It also gave an inhibition at 10 µM (5-HT6 receptors; [3]) of 100%, a melting point of 108 to 109 °C and an IC50 (5-HT2a) of 1160 nM. The IC50 (5-HT1a) was 5400 nM, the IC50 ([2]; Binding affinity, 5-HT6, Table 4) was 1 nM and the IC50 ([2]; binding affinity to the 5-HT6 receptor, Table 2, 1.87 nM [3H]LSD, cloned human receptor membranes from Sf21 cells, 37° C. 60 min) was 0.9 nM.
